Reference: patent US20110009387A1, “HISTONE H2AX (HH2AX) BIOMARKER FOR FTI SENSITIVITY” (priority 2007, published 2011)
Each block holds one compound with its values, some of them ahead of it.

Assays:
MCF7 = test: Soft agar growth assay (colony area); assay type: cell-based, human; set-up: key to Cells designated sensitive (S) or resistant (R) to lonafarnib: sensitive (S); resistant (R); settings: MCF7, breast
Procedure: (§1) Cells were grown in soft agar and the IC50 for lonafarnib was determined. Cells were designated sensitive (S) or resistant (R). The IC50 value was determined by comparing colony areas of the cell lines exposed to the various doses of FTI. IC50 values were calculated with the XLfit program (idbs; Guildford, United Kingdom).
(§2) Growth assays. Soft agar assays were performed in 6-well dishes by seeding 10,000-20,000 cells in each well. Cells were plated in top 0.35% low melting point agarose in DMEM:F12 with 10% fetal bovine serum over a bottom 0.6% agarose feeding layer. Cells were grown in the presence of lonafarnib for 14 days and colonies were stained with 1 mg/ml MIT (dimethylthiazol-diphenyl-terrazolium bromide) in PBS. The plates were scanned and the colony area was determined as the sum of the areas stained by MTT.

A2780 [1] = test: Soft agar growth assay (colony area); assay type: cell-based; set-up: key to Cells designated sensitive (S) or resistant (R) to lonafarnib: sensitive (S); resistant (R); settings: A2780, ovarian
Procedure: as §1, §2

AsPc1 [2] = test: Soft agar growth assay (colony area); assay type: cell-based; set-up: key to Cells designated sensitive (S) or resistant (R) to lonafarnib: sensitive (S); resistant (R); settings: AsPc1, pancreas
Procedure: as §1, §2

Colo205 [3] = test: Soft agar growth assay (colony area); assay type: cell-based; set-up: key to Cells designated sensitive (S) or resistant (R) to lonafarnib: sensitive (S); resistant (R); settings: Colo205, colon
Procedure: as §1, §2

DLD-1 [4] = test: Soft agar growth assay (colony area); assay type: cell-based; set-up: key to Cells designated sensitive (S) or resistant (R) to lonafarnib: sensitive (S); resistant (R); settings: DLD-1, colon
Procedure: as §1, §2

DU145 [5] = test: Soft agar growth assay (colony area); assay type: cell-based; set-up: key to Cells designated sensitive (S) or resistant (R) to lonafarnib: sensitive (S); resistant (R); settings: DU145, prostate
Procedure: as §1, §2

HT29 [6] = test: Soft agar growth assay (colony area); assay type: cell-based; set-up: key to Cells designated sensitive (S) or resistant (R) to lonafarnib: sensitive (S); resistant (R); settings: HT29, colon
Procedure: as §1, §2

LNCap [7] = test: Soft agar growth assay (colony area); assay type: cell-based; set-up: key to Cells designated sensitive (S) or resistant (R) to lonafarnib: sensitive (S); resistant (R); settings: prostate
Procedure: as §1, §2

MDA435 = test: Soft agar growth assay (colony area); assay type: cell-based; set-up: key to Cells designated sensitive (S) or resistant (R) to lonafarnib: sensitive (S); resistant (R); settings: MDA435, breast
Procedure: as §1, §2

MiaPaca [8] = test: Soft agar growth assay (colony area); assay type: cell-based; set-up: key to Cells designated sensitive (S) or resistant (R) to lonafarnib: sensitive (S); resistant (R); settings: pancreas
Procedure: as §1, §2

Panc1 [9] = test: Soft agar growth assay (colony area); assay type: cell-based; set-up: key to Cells designated sensitive (S) or resistant (R) to lonafarnib: sensitive (S); resistant (R); settings: Panc1, pancreas
Procedure: as §1, §2

SKOV3 [10] = test: Soft agar growth assay (colony area); assay type: cell-based; set-up: key to Cells designated sensitive (S) or resistant (R) to lonafarnib: sensitive (S); resistant (R); settings: SKOV3, ovarian
Procedure: as §1, §2

SNB19 [11] = test: Soft agar growth assay (colony area); assay type: cell-based; set-up: key to Cells designated sensitive (S) or resistant (R) to lonafarnib: sensitive (S); resistant (R); settings: SNB19, glioma
Procedure: as §1, §2

SNB75 [12] = test: Soft agar growth assay (colony area); assay type: cell-based; set-up: key to Cells designated sensitive (S) or resistant (R) to lonafarnib: sensitive (S); resistant (R); settings: SNB75, glioma
Procedure: as §1, §2

T47D [13] = test: Soft agar growth assay (colony area); assay type: cell-based; set-up: key to Cells designated sensitive (S) or resistant (R) to lonafarnib: sensitive (S); resistant (R); settings: breast
Procedure: as §1, §2

TOV112D [14] = test: Soft agar growth assay (colony area); assay type: cell-based; set-up: key to Cells designated sensitive (S) or resistant (R) to lonafarnib: sensitive (S); resistant (R); settings: ovarian
Procedure: as §1, §2

MCF-7 = test: Western blot of phospho-histone H2Ax induction; assay type: cell-based, human; settings: 72 hours, 1000 nM FTI vs DMSO, undetectable basal level
Procedure: (§3) The induction of phospho-histone H2Ax was analyzed by comparing the cellular expression levels of the phosphoprotein following exposure of cells to both DMSO (blank) and lonafarnib. The levels were evaluated by western blot. The quantity of induced phosphoprotein was determined qualitatively and by using densitometric analysis of bands on the blot.
(§4) Western blot protein analysis. Cells were lysed in RIPA buffer (50 mM Tris-HCl, 50 mM NaCl, 1% NP40, 0.5% Na-deoxycholate, 1 mM EDTA, 2.5 mM Na3VO4, 20 mM beta-glycerol phosphate, and complete protease inhibitor) and cleared by centrifugation. Protein concentration was determined using BCA reagent. Samples were separated by 14% SDS-PAGE, transferred to polyvinylidene difluoride (PVDF) membrane, immunoblotted and detected by chemiluminescence using the ECL detection reagents. Polyclonal antibodies used: Histone H2Ax and phos-Histone H2Ax (ser-139) (Cell Signaling Technology, Inc.; Danvers, Mass.). Densitometry was analyzed utilizing Quantity One software (Bio-Rad; Hercules, Calif.). Cells that were analyzed for inducation of phospho-H2Ax by western blot analysis were initially plated on plastic and then treated for 72 hours with 1000 nM of the FTI.

A2780 [15] = test: Western blot of phospho-histone H2Ax induction; assay type: cell-based; settings: 72 hours, 1000 nM FTI vs DMSO, undetectable basal level
Procedure: as §3, §4

AsPc1 [16] = test: Western blot of phospho-histone H2Ax induction; assay type: cell-based; settings: 72 hours, 1000 nM FTI vs DMSO, densitometry
Procedure: as §3, §4

Colo205 [17] = test: Western blot of phospho-histone H2Ax induction; assay type: cell-based; settings: 72 hours, 1000 nM FTI vs DMSO
Procedure: as §3, §4

DLD-1 [18] = test: Western blot of phospho-histone H2Ax induction; assay type: cell-based; settings: 72 hours, 1000 nM FTI vs DMSO, densitometry
Procedure: as §3, §4

DU145 [19] = test: Western blot of phospho-histone H2Ax induction; assay type: cell-based; settings: 72 hours, 1000 nM FTI vs DMSO, densitometry
Procedure: as §3, §4

HT29 [20] = test: Western blot of phospho-histone H2Ax induction; assay type: cell-based; settings: 72 hours, 1000 nM FTI vs DMSO, densitometry
Procedure: as §3, §4

LNCap [21] = test: Western blot of phospho-histone H2Ax induction; assay type: cell-based; settings: 72 hours, 1000 nM FTI vs DMSO, densitometry
Procedure: as §3, §4

MDA-435 = test: Western blot of phospho-histone H2Ax induction; assay type: cell-based; settings: 72 hours, 1000 nM FTI vs DMSO, densitometry
Procedure: as §3, §4

MiaPaca [22] = test: Western blot of phospho-histone H2Ax induction; assay type: cell-based; settings: 72 hours, 1000 nM FTI vs DMSO, densitometry
Procedure: as §3, §4

Panc1 [23] = test: Western blot of phospho-histone H2Ax induction; assay type: cell-based; settings: 72 hours, 1000 nM FTI vs DMSO
Procedure: as §3, §4

SKOV3 [24] = test: Western blot of phospho-histone H2Ax induction; assay type: cell-based; settings: 72 hours, 1000 nM FTI vs DMSO, densitometry
Procedure: as §3, §4

SNB19 [25] = test: Western blot of phospho-histone H2Ax induction; assay type: cell-based; settings: 72 hours, 1000 nM FTI vs DMSO, undetectable basal level
Procedure: as §3, §4

SNB75 [26] = test: Western blot of phospho-histone H2Ax induction; assay type: cell-based; settings: 72 hours, 1000 nM FTI vs DMSO, densitometry
Procedure: as §3, §4

T47D [27] = test: Western blot of phospho-histone H2Ax induction; assay type: cell-based; settings: 72 hours, 1000 nM FTI vs DMSO, densitometry
Procedure: as §3, §4

TOV112D [28] = test: Western blot of phospho-histone H2Ax induction; assay type: cell-based; settings: 72 hours, 1000 nM FTI vs DMSO, undetectable basal level
Procedure: as §3, §4

sensitive cell lines = test: Western blot of phospho-histone H2Ax induction; assay type: cell-based; settings: 72 hours, 1000 nM
Procedure: as §3, §4

[29] = Homo sapiens, 336 h, 14 days, read-out: Lonafarnib IC50

IC50 (MCF7; [29]): 10 nM
IC50 (A2780 [1]; [29]): 80 nM
IC50 (AsPc1 [2]; [29]): 1000 nM
IC50 (Colo205 [3]; Homo sapiens, COLO 205, 336 h, 14 days, read-out: Lonafarnib IC50): 330 nM
IC50 (DLD-1 [4]; [29]): 320 nM
IC50 (DU145 [5]; Homo sapiens, DU-145, 336 h, 14 days, read-out: Lonafarnib IC50): 1600 nM
IC50 (HT29 [6]; Homo sapiens, HT-29, 336 h, 14 days, read-out: Lonafarnib IC50): 940 nM
IC50 (LNCap [7]; [29]): 10 nM
IC50 (MiaPaca [8]; Homo sapiens, MIA PaCa-2, 336 h, 14 days, read-out: Lonafarnib IC50): 240 nM
IC50 (Panc1 [9]; Homo sapiens, PANC-1, 336 h, 14 days, read-out: Lonafarnib IC50): 440 nM
IC50 (SKOV3 [10]; Homo sapiens, SK-OV-3, 336 h, 14 days, read-out: Lonafarnib IC50): 2000 nM
IC50 (T47D [13]; [29]): 1800 nM
Compound: NC(=O)N1CCC(CC(=O)N2CCC([C@H]3c4ncc(Br)cc4CCc4cc(Cl)cc(Br)c43)CC2)CC1 [Lonafarnib, lonafarnib]
Cells designated sensitive (S) or resistant (R) to lonafarnib (MCF7): (S)
Cells designated sensitive (S) or resistant (R) to lonafarnib (A2780 [1]): (S)
Cells designated sensitive (S) or resistant (R) to lonafarnib (AsPc1 [2]): (R)
Cells designated sensitive (S) or resistant (R) to lonafarnib (Colo205 [3]): (S)
Cells designated sensitive (S) or resistant (R) to lonafarnib (DLD-1 [4]): (S)
Cells designated sensitive (S) or resistant (R) to lonafarnib (DU145 [5]): (R)
Cells designated sensitive (S) or resistant (R) to lonafarnib (HT29 [6]): (R)
Cells designated sensitive (S) or resistant (R) to lonafarnib (LNCap [7]): (S)
IC50 (MDA435; 336 h, 14 days, read-out: Lonafarnib IC50): 350 nM
Cells designated sensitive (S) or resistant (R) to lonafarnib (MDA435): (S)
Cells designated sensitive (S) or resistant (R) to lonafarnib (MiaPaca [8]): (S)
Cells designated sensitive (S) or resistant (R) to lonafarnib (Panc1 [9]): (S)
Cells designated sensitive (S) or resistant (R) to lonafarnib (SKOV3 [10]): (R)
IC50 (SNB19 [11]; Homo sapiens, SNB-19, 336 h, 14 days, read-out: Lonafarnib IC50): 230 nM
Cells designated sensitive (S) or resistant (R) to lonafarnib (SNB19 [11]): (S)
IC50 (SNB75 [12]; Homo sapiens, SNB-75, 336 h, 14 days, read-out: Lonafarnib IC50): > 3000 nM
Cells designated sensitive (S) or resistant (R) to lonafarnib (SNB75 [12]): (R)
Cells designated sensitive (S) or resistant (R) to lonafarnib (T47D [13]): (R)
IC50 (TOV112D [14]; [29]): 100 nM
Cells designated sensitive (S) or resistant (R) to lonafarnib (TOV112D [14]): (S)
phospho-histone H2Ax expression upon treatment (MCF-7): induced to detectable levels
phospho-histone H2Ax expression upon treatment (A2780 [15]): induced to detectable levels
induction of phospho-histone H2Ax (difference in OD values) (AsPc1 [16]): 1 fold
induction of phos-histone H2Ax upon treatment (Colo205 [17]): no detectable induction
induction of phospho-histone H2Ax (DLD-1 [18]): 4.3 fold
induction of phospho-histone H2Ax (difference in OD values) (DU145 [19]): 1 fold
induction of phospho-histone H2Ax (difference in OD values) (HT29 [20]): 1 fold
induction of phospho-histone H2Ax (LNCap [21]): 2.2 fold
induction of phospho-histone H2Ax (MDA-435): 6.5 fold
induction of phospho-histone H2Ax (MiaPaca [22]): 2.3 fold
induction of phos-histone H2Ax upon treatment (Panc1 [23]): no detectable induction
induction of phospho-histone H2Ax (difference in OD values) (SKOV3 [24]): 1 fold
phospho-histone H2Ax expression upon treatment (SNB19 [25]): induced to detectable levels
induction of phospho-histone H2Ax (difference in OD values) (SNB75 [26]): 1 fold
induction of phospho-histone H2Ax (difference in OD values) (T47D [27]): 1 fold
phospho-histone H2Ax expression upon treatment (TOV112D [28]): induced to detectable levels

Compound: NC(=O)N1CCC(CC(=O)N2CCC(C3c4ncc(Br)cc4CCc4cc(Cl)cc(Br)c43)CC2)CC1 (single isomer, unassigned) [inactive enantiomer of lonafarnib]
phosphorylation of histone-H2Ax upon treatment (sensitive cell lines): does not induce
